Measured values published in PubChem BioAssay (NCI).
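Step 1: Grow cells in 96-well plates. Step 2: Expose to compound for 48 hours at 5 concentrations. Step 3: Interpolate endpoints linearly; if unreached, use highest concentration. GI50 marks 50% less growth. TGI marks complete inhibition of growth.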

How the values were obtained:
Test in all cases: inhibition of tumour cell growth, NCI panel, 48 h
MDA-MB-435 = test system: MDA-MB-435
SW-620 colon = test system: SW-620 colon
SN12C renal = test system: SN12C renal
HCT-15 colon = test system: HCT-15 colon
PC-3 prostate = test system: PC-3 prostate
HOP-62 NSCLC = test system: HOP-62 NSCLC
NCI-H23 lung = test system: NCI-H23 lung
CAKI-1 renal = test system: CAKI-1 renal
TK-10 renal = test system: TK-10 renal
DU-145 prostate = test system: DU-145 prostate

| SMILES | GI50 (MDA-MB-435) [µM] | TGI (MDA-MB-435) [µM] | GI50 (SW-620 colon) [µM] | TGI (SW-620 colon) [µM] | GI50 (SN12C renal) [µM] | TGI (SN12C renal) [µM] | GI50 (HCT-15 colon) [µM] | TGI (HCT-15 colon) [µM] | GI50 (PC-3 prostate) [µM] | TGI (PC-3 prostate) [µM] | GI50 (HOP-62 NSCLC) [µM] | TGI (HOP-62 NSCLC) [µM] | GI50 (NCI-H23 lung) [µM] | TGI (NCI-H23 lung) [µM] | GI50 (CAKI-1 renal) [µM] | TGI (CAKI-1 renal) [µM] | GI50 (TK-10 renal) [µM] | TGI (TK-10 renal) [µM] | GI50 (DU-145 prostate) [µM] | TGI (DU-145 prostate) [µM] |
| --- | --- | --- | --- | --- | --- | --- | --- | --- | --- | --- | --- | --- | --- | --- | --- | --- | --- | --- | --- | --- |
| CCN(CC)CCCNCc1cc(-c2ccccc2)nc2ccccc12 | 4.47 | 24.3 | 2.75 | 21.9 | 4.52 | > 100 | 3.24 | 45.8 | 11.2 | > 100 | 8.27 | > 100 | 6.07 | 85.2 | 19.5 | > 100 | 5.09 | 31.8 | 21.2 | > 100 |
| COc1cc(-c2cc(O)c(-c3ccc4ccccc4n3)c(=O)[nH]2)cc(OC)c1OC |  | 11.6 |  | 66.1 |  | > 100 |  | > 100 |  | > 100 |  | > 90.4 |  | > 95.5 |  | > 87.9 |  | > 100 |  | > 85.6 |
| CCOC(=O)c1cc2c(cc1Cl)SC(N(c1ccc(OC)cc1)S(=O)(=O)c1ccc(Cl)cc1)=NS2(=O)=O | 22.1 | 57 | 27.6 | 72.8 | 31.8 | > 100 | 32.3 | > 100 | 20 | 58.6 | > 100 | > 100 | 34.6 | > 100 | 35.8 | > 100 | 38.4 | > 100 | 24 | 79.9 |
| NC(=O)/N=C1/CCC2C3CCCC2C13 |  |  |  | > 100 |  | > 100 |  |  |  |  |  | > 100 |  | > 100 |  | > 100 |  | > 100 |  |  |
| Oc1ccc2ccccc2c1N=Nc1ccsc1 |  |  |  | > 100 |  | > 100 |  | > 100 |  |  |  | > 100 |  | > 100 |  | > 100 |  | > 100 |  |  |
| CNC(=O)c1ccccc1Nc1nc(Nc2cc(OC)c(OC)c(OC)c2)ncc1Br | 0.0546 | 2.11 | 0.0241 | 5.76 | 0.0366 | 3.3 | 0.0283 | 7.75 | 0.131 | 10.9 | 0.0349 | 2.31 | 0.035 | 1.12 | 0.0155 | 0.275 | 0.0186 | 0.648 | 0.0348 | 42.1 |
| CN(C)CCNC(=O)c1cccc(N(C)C(=O)c2ccccc2)c1[N+](=O)[O-] |  | > 100 |  | > 100 |  | > 10 |  | > 100 |  | > 100 |  | > 100 |  | > 100 |  | > 100 |  | > 100 |  | > 100 |
| Cc1ccc(S(=O)(=O)NC2(C=O)CCCC3CCCCC32)cc1 (stereo not given) |  |  |  | > 100 |  | > 100 |  | > 100 |  |  |  | > 100 |  |  |  | > 100 |  | > 100 |  |  |
| CC12CCC3(OCCO3)C(OC(=O)c3ccccc3)=C1CCC21OCCO1 (stereo not given) |  |  |  | > 100 |  | > 100 |  | > 100 |  |  |  | > 100 |  |  |  | > 100 |  | > 100 |  |  |
